In one experiment the test system is Uromyces viciae-Fabael. The experiment is described as follows: Uromyces viciae-fabae / field bean / leaf disc preventative (faba-bean rust). The format is in vivo, Uromyces viciae-fabae on field bean. To be noted: foliar, 288 h, 100 ppm in the applied formulation, inoculated two hours after application, assessed 12 days after application, vs untreated control leaf discs, read-out: disease control. The procedure: Leaf disks or leaf segments of various plant species are cut from plants grown in a greenhouse. The cut leaf disks or segments are placed in multiwell plates (24-well format) onto water agar. The leaf disks are sprayed with a test solution before (preventative) or after (curative) inoculation. Compounds to be tested are prepared as DMSO solutions (max. 10 mg/ml) which are diluted to the appropriate concentration with 0.025% Tween20 just before spraying. The inoculated leaf disks or segments are incubated under defined conditions (temperature, relative humidity, light, etc.) according to the respective test system. A single evaluation of disease level is carried out 3 to 14 days after inoculation, depending on the pathosystem. Percent disease control relative to the untreated check leaf disks or segments is then calculated.
Field bean leaf discs are placed on water agar in multiwell plates (96-well format) and 10 μl of the formulated test compound diluted in acetone and a spreader pipetted onto the leaf disc. Two hours after application leaf discs are inoculated by spraying a spore suspension on the lower leaf surface. The leaf discs are incubated in a climate cabinet at 22° C. with 18 hour day and 70% relative humidity. The activity of a compound is assessed as percent disease control compared to untreated when an appropriate level of disease damage appears in untreated check leaf disks (12 days after application).
The following compounds at 100 ppm in the applied formulation give at least 80% disease control in this test when compared to untreated control leaf discs under the same conditions, which show extensive disease development.

The subject of experiment [1] is Glomerella Lacenarium (Colletotrichum lacenarium). Description: Glomerella lagenarium (Colletotrichum lagenarium) liquid culture / cucumber / preventative (anthracnose). The settings on record: 20 ppm in the applied formulation, liquid culture in PDB, 24° C., inhibition of growth measured photometrically 3 to 4 days after application, vs untreated control, read-out: disease control. The format is cell-based. Put shortly: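 In liquid culture, cryo-stored conidia in potato dextrose broth were exposed to compound delivered from DMSO solution. Growth inhibition was measured photometrically after 3 to 4 days at 24° C.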

The test system of another experiment is Phakopsora pachyrhizi. Description: Phakopsora pachyrhizi / soybean / leaf disc preventative (Asian soybean rust). In kind it is in vivo, Phakopsora pachyrhizi on soybean. The settings on record: foliar, 200 ppm in the applied formulation, inoculated one day after application, assessed 12 to 14 days after application, vs untreated control leaf disks, read-out: disease control. Put shortly: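 Read-out is percent disease control relative to untreated check discs, assessed once untreated discs show adequate disease, 12 to 14 days after application. Compounds, tested at 200 ppm in the applied formulation, are sprayed onto soybean leaf discs one day before inoculation with a spore suspension.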

Experiment [2] has as its system Puccinia recondita f. Sp. Triticil. The experiment is described as follows: Puccinia recondita f. sp. tritici / wheat / leaf disc curative (brown rust). The format is in vivo, Puccinia recondita f. sp. tritici on wheat cv. Kanzler. To be noted: foliar, 200 ppm in the applied formulation, applied 1 day after inoculation, assessed 6 to 8 days after application, vs untreated control leaf disks, read-out: disease control. The method in brief: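 Spray application came one day after spore inoculation of Kanzler wheat leaf segments kept on agar. Conditions: 19° C, 75% relative humidity, dark before treatment and 12 h light/12 h dark after. Efficacy = % disease control compared with untreated, 6–8 days post-application.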

The subject of experiment [3] is Puccinia recondita f. Sp. Tritici. Description: Puccinia recondita f. sp. tritici / wheat / leaf disc preventative (brown rust). In kind it is in vivo, Puccinia recondita f. sp. tritici on wheat cv. Kanzler. To be noted: foliar, 200 ppm in the applied formulation, inoculated 1 day after application, assessed 7 to 9 days after application, vs untreated control leaf disks, read-out: disease control. The method in brief:
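Wheat cv. Kanzler leaf segments on agar were sprayed with compound (DMSO stock diluted with 0.025% Tween20) 1 day before inoculation with spores. Segments were held at 19 °C, 75% rh, 12 h light/dark. Percent disease control versus untreated was scored 7–9 days after application.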

`COc1ccccc1C(=O)NCc1ccc(-c2noc(C(F)(F)F)n2)cc1` [Compound 1.6, 2-methoxy-N-[[4-[5-(trifluoromethyl)-1,2,4-oxadiazol-3-yl]phenyl]methyl]benzamide]: in the experiment on Uromyces viciae-Fabael, the pest or weed control at 100 ppm was at least 80%. The inhibition of growth at 20 ppm in experiment [1] is at least 80%. Also, the pest or weed control at 200 ppm (in the experiment on Phakopsora pachyrhizi; in experiment [2]; in experiment [3]) was at least 80% in each case.

Take `O=C(NCc1ccc(-c2noc(C(F)(F)F)n2)cc1)c1cccc(C(F)(F)F)c1` [Compound 1.9, 3-(trifluoromethyl)-N-[[4-[5-(trifluoromethyl)-1,2,4-oxadiazol-3-yl]phenyl]methyl]benzamide]: the pest or weed control at 100 ppm in the experiment on Uromyces viciae-Fabael is at least 80%.

In the case of `O=C(CCc1ccc(Cl)cc1)NCc1ccc(-c2noc(C(F)(F)F)n2)cc1` [Compound 1.11, 3-(4-chlorophenyl)-N-[[4-[5-(trifluoromethyl)-1,2,4-oxadiazol-3-yl]phenyl]methyl] propanamide], the pest or weed control at 100 ppm in the experiment with Uromyces viciae-Fabael was at least 80%.

Take `O=C(Cc1ccccc1Cl)NCc1ccc(-c2noc(C(F)(F)F)n2)cc1` [Compound 1.12, 2-(2-chlorophenyl)-N-[[4-[5-(trifluoromethyl)-1,2,4-oxadiazol-3-yl]phenyl]methyl]acetamide]: in the experiment on Uromyces viciae-Fabael, the pest or weed control at 100 ppm was at least 80%. For the same compound, the pest or weed control at 200 ppm in experiment [3] was at least 80%.

Take `O=C(NCc1ccc(-c2noc(C(F)(F)F)n2)cc1)C1(c2ccc(Cl)cc2)CCC1` [Compound 1.13, 1-(4-chlorophenyl)-N-[[4-[5-(trifluoromethyl)-1,2,4-oxadiazol-3-yl]phenyl]methyl] cyclobutanecarboxamide]: in the experiment on Uromyces viciae-Fabael, the pest or weed control at 100 ppm was at least 80%. Moreover, the pest or weed control at 200 ppm in experiment [3] was at least 80%.

For `O=C(NCc1ccc(-c2noc(C(F)(F)F)n2)cc1)C1(c2ccccc2)CC1` [Compound 1.14, 1-phenyl-N-[[4-[5-(trifluoromethyl)-1,2,4-oxadiazol-3-yl]phenyl]methyl] cyclopropanecarboxamide], the pest or weed control at 100 ppm with Uromyces viciae-Fabael was at least 80%. Besides, the inhibition of growth at 20 ppm in experiment [1] was at least 80%. Besides, the pest or weed control at 200 ppm in experiment [3] is at least 80%.

`O=C(NCc1ccc(-c2noc(C(F)(F)F)n2)cc1)C1CC1c1ccccc1` (stereo not drawn) [Compound 1.15, 2-phenyl-N-[[4-[5-(trifluoromethyl)-1,2,4-oxadiazol-3-yl]phenyl]methyl] cyclopropanecarboxamide]: the pest or weed control at 100 ppm in the experiment with Uromyces viciae-Fabael is at least 80%. The inhibition of growth at 20 ppm in experiment [1] is at least 80%. Moreover, the pest or weed control at 200 ppm in experiment [3] is at least 80%.

For `O=C(Cc1cccnc1)NCc1ccc(-c2noc(C(F)(F)F)n2)cc1` [Compound 1.17, 2-(3-pyridyl)-N-[[4-[5-(trifluoromethyl)-1,2,4-oxadiazol-3-yl]phenyl]methyl]acetamide], the pest or weed control at 100 ppm in the experiment with Uromyces viciae-Fabael is at least 80%. The pest or weed control at 200 ppm in experiment [2] and in experiment [3] was at least 80% throughout.

Take `Cc1cccc(C)c1C(=O)NCc1ccc(-c2noc(C(F)(F)F)n2)cc1` [Compound 1.19, 2,6-dimethyl-N-[[4-[5-(trifluoromethyl)-1,2,4-oxadiazol-3-yl]phenyl]methyl]benzamide]: the pest or weed control at 100 ppm with Uromyces viciae-Fabael is at least 80%. In addition, the inhibition of growth at 20 ppm in experiment [1] was at least 80%. Further, the pest or weed control at 200 ppm (in the experiment on Phakopsora pachyrhizi; in experiment [3]) was at least 80% each time.

For `CC1(C(=O)NCc2ccc(-c3noc(C(F)(F)F)n3)cc2)CC1(Cl)Cl` (stereo not drawn) [Compound 1.20, 2,2-dichloro-1-methyl-N-[[4-[5-(trifluoromethyl)-1,2,4-oxadiazol-3-yl]phenyl]methyl] cyclopropanecarboxamide], in the experiment on Uromyces viciae-Fabael, the pest or weed control at 100 ppm is at least 80%. Besides, the inhibition of growth at 20 ppm in experiment [1] was at least 80%. Moreover, the pest or weed control at 200 ppm in experiment [3] is at least 80%.

As for `COc1ccccc1CC(=O)NCc1ccc(-c2noc(C(F)(F)F)n2)cc1` [Compound 1.23, 2-(2-methoxyphenyl)-N-[[4-[5-(trifluoromethyl)-1,2,4-oxadiazol-3-yl]phenyl]methyl]acetamide], the pest or weed control at 100 ppm in the experiment with Uromyces viciae-Fabael is at least 80%. For the same compound, the pest or weed control at 200 ppm in experiment [2] and in experiment [3] was at least 80% each time.

Take `O=C(NCc1ccc(-c2noc(C(F)(F)F)n2)cc1)C1CCSCC1` [Compound 1.27, N-[[4-[5-(trifluoromethyl)-1,2,4-oxadiazol-3-yl]phenyl]methyl] tetrahydrothiopyran-4-carboxamide]: in the experiment on Uromyces viciae-Fabael, the pest or weed control at 100 ppm is at least 80%. The pest or weed control at 200 ppm (in the experiment on Phakopsora pachyrhizi; in experiment [3]) was at least 80% in each case.

With `O=C(Cc1ccc(Cl)cc1)NCc1ccc(-c2noc(C(F)(F)F)n2)cc1` [Compound 1.29, 2-(4-chlorophenyl)-N-[[4-[5-(trifluoromethyl)-1,2,4-oxadiazol-3-yl]phenyl]methyl]acetamide], the pest or weed control at 100 ppm with Uromyces viciae-Fabael was at least 80%. Further, the pest or weed control at 200 ppm (in the experiment with Phakopsora pachyrhizi; in experiment [3]) was at least 80% in each case.

As for `N#Cc1ccc(CC(=O)NCc2ccc(-c3noc(C(F)(F)F)n3)cc2)cc1` [Compound 1.30, 2-(4-cyanophenyl)-N-[[4-[5-(trifluoromethyl)-1,2,4-oxadiazol-3-yl]phenyl]methyl]acetamide], in the experiment on Uromyces viciae-Fabael, the pest or weed control at 100 ppm is at least 80%. The pest or weed control at 200 ppm (with Phakopsora pachyrhizi; in experiment [3]) was at least 80% each time.

`CCC1(C(=O)NCc2ccc(-c3noc(C(F)(F)F)n3)cc2)C(C)C1(Cl)Cl` (stereo not drawn) [Compound 1.31, 2,2-dichloro-1-ethyl-3-methyl-N-[[4-[5-(trifluoromethyl)-1,2,4-oxadiazol-3-yl]phenyl]methyl] cyclopropanecarboxamide]: the pest or weed control at 100 ppm in the experiment on Uromyces viciae-Fabael is at least 80%.

For `O=C(Cc1ccc(C(F)(F)F)cc1)NCc1ccc(-c2noc(C(F)(F)F)n2)cc1` [Compound 1.34, N-[[4-[5-(trifluoromethyl)-1,2,4-oxadiazol-3-yl]phenyl]methyl]-2-[4-(trifluoromethyl)phenyl] acetamide], the pest or weed control at 100 ppm in the experiment with Uromyces viciae-Fabael was at least 80%. Further, the pest or weed control at 200 ppm in experiment [3] was at least 80%.

Consider `CCOc1ccc(C2(C(=O)NCc3ccc(-c4noc(C(F)(F)F)n4)cc3)CC2(F)F)cc1` (stereo not drawn) [Compound 1.35, 1-(4-ethoxyphenyl)-2,2-difluoro-N-[[4-[5-(trifluoromethyl)-1,2,4-oxadiazol-3-yl]phenyl]methyl] cyclopropanecarboxamide], for which, in the experiment on Uromyces viciae-Fabael, the pest or weed control at 100 ppm is at least 80%.

Turning to `O=C(NCc1ccc(-c2noc(C(F)(F)F)n2)cc1)c1ccc(Cl)cc1` [Compound 1.36, 4-chloro-N-[[4-[5-(trifluoromethyl)-1,2,4-oxadiazol-3-yl]phenyl]methyl]benzamide], the pest or weed control at 100 ppm in the experiment on Uromyces viciae-Fabael is at least 80%. Besides, the inhibition of growth at 20 ppm in experiment [1] was at least 80%. Also, in experiment [3], the pest or weed control at 200 ppm was at least 80%.

Regarding `COc1cccc(C2(C(=O)NCc3ccc(-c4noc(C(F)(F)F)n4)cc3)CC2)c1` [Compound 1.37, 1-(3-methoxyphenyl)-N-[[4-[5-(trifluoromethyl)-1,2,4-oxadiazol-3-yl]phenyl]methyl] cyclopropanecarboxamide], in the experiment with Uromyces viciae-Fabael, the pest or weed control at 100 ppm was at least 80%. Moreover, the pest or weed control at 200 ppm in experiment [2] is at least 80%.

Consider `O=C(NCc1ccc(-c2noc(C(F)(F)F)n2)cc1)C1(c2ccc(Cl)cc2)CC1` [Compound 1.39, 1-(4-chlorophenyl)-N-[[4-[5-(trifluoromethyl)-1,2,4-oxadiazol-3-yl]phenyl]methyl] cyclopropanecarboxamide], for which the pest or weed control at 100 ppm in the experiment on Uromyces viciae-Fabael is at least 80%. Besides, in the experiment on Phakopsora pachyrhizi, the pest or weed control at 200 ppm is at least 80%.

As to `O=C(NCc1ccc(-c2noc(C(F)(F)F)n2)cc1)c1ccccc1` [Compound 1.40, N-[[4-[5-(trifluoromethyl)-1,2,4-oxadiazol-3-yl]phenyl]methyl]benzamide], the pest or weed control at 100 ppm in the experiment on Uromyces viciae-Fabael is at least 80%. The inhibition of growth at 20 ppm in experiment [1] is at least 80%. Further, the pest or weed control at 200 ppm in experiment [2] and in experiment [3] was at least 80% each time.

The values are drawn from US20180368410A1, “MICROBIOCIDAL OXADIAZOLE DERIVATIVES” (SYNGENTA PARTICIPATIONS AG, priority 2015, published 2018).
